# Assay results: patent publication US8518957B2, “Methanocarba adenosine derivatives, pharmaceutical compositions, and method of reducing intraocular pressure” (The United States of America, as represented by the …, priority 2009, dated 2013)
# Assays:
# human A1 AR = target: T1, human A1 AR (Homo sapiens, UniProt P30542); experiment: Radioligand binding at human A1 AR ([3H]NECA, membranes of CHO cells)
# T1 construct: expressed in transfected cells
# T1 sequence (P30542 1-326): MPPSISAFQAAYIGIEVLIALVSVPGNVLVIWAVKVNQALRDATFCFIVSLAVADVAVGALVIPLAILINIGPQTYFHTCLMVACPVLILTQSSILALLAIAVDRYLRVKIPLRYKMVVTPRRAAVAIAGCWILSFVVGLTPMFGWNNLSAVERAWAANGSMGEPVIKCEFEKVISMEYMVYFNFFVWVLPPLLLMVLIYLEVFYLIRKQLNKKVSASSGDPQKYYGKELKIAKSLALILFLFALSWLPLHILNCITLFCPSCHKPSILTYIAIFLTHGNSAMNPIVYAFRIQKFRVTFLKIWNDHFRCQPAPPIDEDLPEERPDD
# Summary of the method: (§1)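 Membranes from CHO (hA1, hA3) or HEK-293 (hA2A) cells were pretreated with adenosine deaminase and incubated 60 min at 25° C in pH 7.5 Tris/10 mM MgCl2. Radioligands were A1 [3H]NECA 3.5 nM, A2A [3H]CGS21680 10 nM and A3 [125I]I-AB-MECA 0.34 nM. Bound ligand was filtered and Ki derived.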
# hA2AAR = target: T2, hA2AAR (Homo sapiens, UniProt P29274); experiment: Radioligand binding at human A2A AR ([3H]CGS21680, membranes of HEK-293 cells)
# T2 construct: expressed in transfected cells
# T2 sequence (P29274 whole entry): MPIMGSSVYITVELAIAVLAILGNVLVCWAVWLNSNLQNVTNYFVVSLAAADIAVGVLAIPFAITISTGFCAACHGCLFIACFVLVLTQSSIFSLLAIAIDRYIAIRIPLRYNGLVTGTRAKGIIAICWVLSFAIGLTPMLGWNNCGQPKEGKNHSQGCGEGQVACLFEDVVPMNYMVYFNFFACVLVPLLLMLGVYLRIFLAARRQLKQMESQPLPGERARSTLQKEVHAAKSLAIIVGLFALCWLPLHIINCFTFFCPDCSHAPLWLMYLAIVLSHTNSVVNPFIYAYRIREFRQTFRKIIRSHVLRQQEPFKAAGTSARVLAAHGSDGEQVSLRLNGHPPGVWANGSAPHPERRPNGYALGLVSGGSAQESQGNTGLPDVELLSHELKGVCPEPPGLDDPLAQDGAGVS
# Summary of the method: as §1
# human A3AR = target: T3, human A3AR (Homo sapiens, UniProt P0DMS8); experiment: Cyclic AMP accumulation assay: inhibition of forskolin-stimulated cyclic AMP production in AR-transfected CHO cells; assay type: cell-based; conditions: at 10 μM, in comparison to the maximal effect of full agonist NECA at 10 μM
# T3 construct: expressed in transfected cells
# T3 sequence (P0DMS8 1-318): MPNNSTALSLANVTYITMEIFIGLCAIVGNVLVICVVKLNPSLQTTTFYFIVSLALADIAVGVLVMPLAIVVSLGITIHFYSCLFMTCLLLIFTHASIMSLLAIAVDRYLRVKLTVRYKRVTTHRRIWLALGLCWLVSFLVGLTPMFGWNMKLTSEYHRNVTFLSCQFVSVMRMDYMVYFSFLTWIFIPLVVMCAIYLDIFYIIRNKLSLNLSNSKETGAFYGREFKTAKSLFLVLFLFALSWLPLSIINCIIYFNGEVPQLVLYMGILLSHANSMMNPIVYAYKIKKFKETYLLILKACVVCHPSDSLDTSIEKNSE
# Protocol: Intracellular cyclic AMP levels were measured with a competitive protein binding method. […] CHO cells that expressed the recombinant human A3AR were harvested by trypsinization. After centrifugation and resuspended in medium, cells were planted in 24-well plates in 1.0 mL medium. After 24 h, the medium was removed and cells were washed three times with 1 mL DMEM, containing 50 mM HEPES, pH 7.4. […] After 45 min forskolin (10 μM) was added to the medium, and incubation was continued for an additional 15 min. […] The cell lysate was resuspended and stored at −20° C. For determination of cyclic AMP production, protein kinase A (PKA) was incubated with [^3H]cyclic AMP (2 nM) in K2HPO4/EDTA buffer (K2HPO4, 150 mM; EDTA, 10 mM), 20 μL of the cell lysate, and 30 μL 0.1 M HCl or 50 μL of cyclic AMP solution (0-16 pmol/200 μL for standard curve). Bound radioactivity was separated by rapid filtration through Whatman GF/C filters and washed once with cold buffer. Bound radioactivity was measured by liquid scintillation spectrometry.
# Bound radioactivity was separated by rapid filtration through Whatman GF/C filters and washed the filters once with cold buffer. Bound radioactivity was measured with liquid scintillation spectrometry.
SMILES,inhibition at 10 µM (human A1 AR) [%],inhibition at 10 µM (hA2AAR) [%],% Inhibition of cAMP formation at hA3 AR (human A3AR) [%]
"CNC(=O)[C@@]12C[C@@H]1[C@@H](n1cnc3c(NCc4cccc(Cl)c4)nc(-c4nnn(-c5ccc(N=C=S)cc5)c4CCCCc4cn(-c5ccc(N=C=S)cc5)nn4)nc31)[C@H](O)[C@@H]2O [Compound 25, (1S,2R,3S,4R,5S)-6-(3-Chlorobenzylamino)-(2-(1,6-bis(4-isothiocyante-phenyl)-1H-bis(1,2,3-triazol-4-yl)hex-1-ynyl)-9H-purin-9-yl)-2′,3′-dihydroxybicyclo[3.1.0]hexane-1′-carboxylic acid N-methylamide]",4,40,83.6 ± 7.2
"CNC(=O)[C@@]12C[C@@H]1[C@@H](n1cnc3c(NCc4cccc(Cl)c4)nc(C#CCCCCc4cn(-c5ccc(N=C=S)cc5)nn4)nc31)[C@H](O)[C@@H]2O [Compound 26, (1S,2R,3S,4R,5S)-6-(3-Chlorobenzylamino)-(2-(6-(1-(4-isothiocyante-phenyl)-1H-1,2,3-triazol-4-yl)hex-1-ynyl)-9H-purin-9-yl)-2′,3′-dihydroxybicyclo[3.1.0]hexane-1′-carboxylic acid N-methylamide]",2,28,19.5 ± 14.5
